Reference: ChEMBL document CHEMBL1201862, “PubChem BioAssay data set” (2004)
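Cells were grown in 96-well plates and exposed to each compound for 48 hours at five concentrations; endpoints were interpolated linearly between bracketing concentrations, or set to the highest concentration if not reached. GI50 = concentration required for 50% inhibition of growth.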 The source made the active and inactive calls. Rule as the data show it: active = GI50 up to about 1.1 µM and inactive = higher.

What was measured:
Test in all cases: NCI-60 cell line screen, 48 h
[1] = test system: RPMI-8226
[2] = test system: Malme-3M
[3] = test system: SF-268
[4] = test system: RXF 393
[5] = test system: A549
[6] = test system: NCI-H226
[7] = test system: HOP-18
[8] = test system: XF498
[9] = test system: K562
[10] = test system: MOLT-4
[11] = test system: OVCAR-4
[12] = test system: M19-MEL
[13] = test system: CCRF-CEM
[14] = test system: T47D
[15] = test system: UACC-62
[16] = test system: UACC-257
[17] = test system: DU-145
[18] = test system: SNB-19
[19] = test system: SNB-75
[20] = test system: SNB-78

| Structure (SMILES) | GI50 [1] | GI50 [2] | GI50 [3] | GI50 [4] | GI50 [5] | GI50 [6] | GI50 [7] | GI50 [8] | GI50 [9] | GI50 [10] | GI50 [11] | GI50 [12] | GI50 [13] | GI50 [14] | GI50 [15] | GI50 [16] | GI50 [17] | GI50 [18] | GI50 [19] | GI50 [20] |
| --- | --- | --- | --- | --- | --- | --- | --- | --- | --- | --- | --- | --- | --- | --- | --- | --- | --- | --- | --- | --- |
| CCCCCC/C=C1\CCC(CN(C)C)C1=O (stereo not given) | 0.641 µM (active) | 7.23 µM (inactive) | 5.35 µM (inactive) | 3.51 µM (inactive) | 19.8 µM (inactive) | 18.7 µM (inactive) | 15.4 µM (inactive) | 3.31 µM (inactive) | 2.4 µM (inactive) | 3.05 µM (inactive) | 19.6 µM (inactive) | 2.59 µM (inactive) | 1.83 µM (inactive) | 2.86 µM (inactive) | 5.64 µM (inactive) | 7.71 µM (inactive) | 20.1 µM (inactive) | 15.4 µM (inactive) | 11 µM (inactive) |  |
| Cc1cc(NS(=O)(=O)c2ccc(Nc3c4ccccc4nc4c(C(=O)Nc5ccc(S(=O)(=O)N=C(N)N)cc5)cccc34)cc2)no1 | > 100 µM (inactive) | > 100 µM (inactive) | > 100 µM (inactive) | > 100 µM (inactive) | > 100 µM (inactive) |  | > 100 µM (inactive) | > 100 µM (inactive) | > 100 µM (inactive) | > 100 µM (inactive) | > 100 µM (inactive) | > 100 µM (inactive) | > 100 µM (inactive) |  | > 100 µM (inactive) | > 100 µM (inactive) |  | > 100 µM (inactive) | > 100 µM (inactive) | > 100 µM (inactive) |
| Cc1c(OCCCOc2ccc3c(=O)cc(-c4ccccc4)oc3c2C)ccc2c(=O)cc(-c3ccccc3)oc12 | > 100 µM (inactive) | > 100 µM (inactive) | > 100 µM (inactive) | 74 µM (inactive) | > 100 µM (inactive) |  | > 100 µM (inactive) | > 100 µM (inactive) | 59.2 µM (inactive) | > 100 µM (inactive) |  | > 100 µM (inactive) | 68.7 µM (inactive) |  | > 100 µM (inactive) | > 100 µM (inactive) |  | > 100 µM (inactive) |  | 51.2 µM (inactive) |
| Cc1ccc(S(=O)(=O)O/N=C2\CCC\C2=C/c2ccccc2)cc1 | 16 µM (inactive) |  | 8.87 µM (inactive) | 20.3 µM (inactive) | 29.4 µM (inactive) | 18.5 µM (inactive) | 20.3 µM (inactive) | 18.5 µM (inactive) | 26.7 µM (inactive) | 13 µM (inactive) | 23.3 µM (inactive) | 20.1 µM (inactive) | 58.6 µM (inactive) |  | 8.45 µM (inactive) | 17.1 µM (inactive) |  | 30.5 µM (inactive) | 20.2 µM (inactive) | 1.31 µM (inactive) |
| COc1ccc2c(c1)CCCC1C3=NCCC3(C)CSC21 (stereo not given) | 55.8 µM (inactive) |  | > 100 µM (inactive) | 95.5 µM (inactive) | > 100 µM (inactive) |  | 80.4 µM (inactive) | > 100 µM (inactive) | 31 µM (inactive) | 32.6 µM (inactive) | > 100 µM (inactive) | 72.1 µM (inactive) | 70.3 µM (inactive) |  | 55 µM (inactive) |  |  | > 100 µM (inactive) | 67.8 µM (inactive) | > 100 µM (inactive) |
| CCC1(Br)C(=O)NC(=O)N(C2CC(O)C(CO)O2)C1N=[N+]=[N-] (stereo not given) | > 100 µM (inactive) | > 100 µM (inactive) | > 100 µM (inactive) | 66.7 µM (inactive) | > 100 µM (inactive) |  |  | > 100 µM (inactive) | > 100 µM (inactive) | > 100 µM (inactive) | > 100 µM (inactive) | > 100 µM (inactive) | 44 µM (inactive) |  | > 100 µM (inactive) | 83.6 µM (inactive) |  | > 100 µM (inactive) | > 100 µM (inactive) | > 100 µM (inactive) |
| O=Cc1[nH]c2ccccc2c1Br |  | 18.5 µM (inactive) | 22.9 µM (inactive) | 25.4 µM (inactive) | > 100 µM (inactive) | 29.8 µM (inactive) | 27.7 µM (inactive) | 30.1 µM (inactive) | 15 µM (inactive) | 22.5 µM (inactive) | 31.3 µM (inactive) | 22.1 µM (inactive) | 37.4 µM (inactive) |  | 16.9 µM (inactive) | 28.5 µM (inactive) |  | 24.8 µM (inactive) | 19.2 µM (inactive) | 15.8 µM (inactive) |
| CC[P+]1(CC)CCCC1 | > 100 µM (inactive) | > 100 µM (inactive) | > 100 µM (inactive) | > 100 µM (inactive) | > 100 µM (inactive) |  | > 100 µM (inactive) | > 100 µM (inactive) | > 100 µM (inactive) | > 100 µM (inactive) | > 100 µM (inactive) | > 100 µM (inactive) | > 100 µM (inactive) |  | > 100 µM (inactive) | > 100 µM (inactive) |  | > 100 µM (inactive) | > 100 µM (inactive) | > 100 µM (inactive) |
| C[C@@H](C1CCC2C3C(=CC(=O)[C@@]21C)[C@H](C)[C@]1(CCC(=O)O1)C1OC31)[C@H]1C[C@]2(C)O[C@@](C)(O1)OC2(C)C (stereo not given in full) | > 100 µM (inactive) |  | > 100 µM (inactive) | > 100 µM (inactive) | > 100 µM (inactive) |  | > 100 µM (inactive) | > 100 µM (inactive) | > 100 µM (inactive) | > 100 µM (inactive) |  | > 100 µM (inactive) | > 100 µM (inactive) |  | > 100 µM (inactive) |  |  | > 100 µM (inactive) |  |  |
